Entries after “also recorded” stand apart in the source; their conditions may differ. Like-named read-outs stand apart in the source and are kept apart here.
Tests used:
[1] = test system: U-373 glioma cells; assay: Sensitization of U-373 glioma cells expressing CE to APC; type: cell-based, human; settings: 2 h exposure
Experimental: FIG. 7 is a linegraph showing a comparison of the sensitization, depicted as % survival on the Y-axis, of U-373 glioma cells exposed to APC, depicted as log[APC] at concentrations from 10^−8 to 10^−5 M on the X-axis, from in situ expression of rabbit liver CE (filled squares) and human alveolar macrophage CE (filled circles). Cells were exposed for 2 hours to APC.
(§1) No known human enzyme activates APC. […] Thus, the combination of APC and sensitization of selected tumor cells with rabbit liver CE as described above can be used to produce a tumor-specific cell death while greatly minimizing the toxic side effects associated with administration of chemotherapy.

[2] = biological target: T1, rabbit liver CE (Oryctolagus cuniculus, UniProt P12337); assay: In vitro conversion of APC to SN-38 by rabbit liver CE; type: biochemical; settings: FIG. 6
T1 sequence (P12337 19-565): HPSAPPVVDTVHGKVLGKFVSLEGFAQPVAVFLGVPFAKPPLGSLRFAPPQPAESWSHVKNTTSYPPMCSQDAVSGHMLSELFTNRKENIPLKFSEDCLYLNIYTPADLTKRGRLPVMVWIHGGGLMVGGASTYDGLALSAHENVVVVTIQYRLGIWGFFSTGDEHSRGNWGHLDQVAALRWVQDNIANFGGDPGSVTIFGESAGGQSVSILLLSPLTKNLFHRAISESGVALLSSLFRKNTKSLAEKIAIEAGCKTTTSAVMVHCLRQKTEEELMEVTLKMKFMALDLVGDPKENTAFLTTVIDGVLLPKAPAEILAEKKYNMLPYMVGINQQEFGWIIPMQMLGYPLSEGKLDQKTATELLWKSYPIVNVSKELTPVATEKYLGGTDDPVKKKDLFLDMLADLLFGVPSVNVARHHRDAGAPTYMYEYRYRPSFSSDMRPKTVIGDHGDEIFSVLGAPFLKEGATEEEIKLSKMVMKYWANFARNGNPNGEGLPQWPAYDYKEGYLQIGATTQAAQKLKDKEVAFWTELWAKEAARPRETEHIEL
Source text: FIG. 6 is a linegraph showing the conversion of APC, depicted on the X-axis at nanomolar concentrations, to SN-38, depicted on the Y-axis at nanomolar concentrations, in vitro by the activity of rabbit liver CE given at doses of 0 (filled cross), 10 (filled hexagon), 25 (filled triangle), 50 (filled circle) or 100 (filled square) units. Data presented represent the mean response at each dose level.
as §1

[3] = patients; cited from earlier work
[4] = test system: U373 glioblastoma xenografts; assay: U373 glioblastoma xenografts in SCID mice treated with CPT-11; type: in vivo; settings: 7.5 mg/kg/day, three cycles
Source text: The tumor growth rate is depicted on the Y-axis in terms of tumor volume and is plotted as a function of time in weeks (X-axis). Open circles depict the tumor volume of untreated U373 xenografts expressing rabbit CE. Filled triangles depict the response of control xenografts (no rabbit CE) treated with CPT-11. Filled squares depict the response of cells expressing rabbit CE and treated with CPT-11. […] Each point represents the mean of 14 tumors in 7 individual mice.
Similar studies were performed employing U373 glioblastoma cells transfected with the pIRESneo plasmid or with pIRESneo containing the cDNA for rabbit liver CE and selected with G418. Expression of CE in the tumor cells was confirmed by biochemical assay using the substrate o-NPA. Cells were injected subcutaneously into the flanks of the SCID mice.

[5] = test system: Rh30 rhabdosarcoma xenografts; assay: Rh30 and Rh30pIRESrabbit xenografts in SCID mice treated with CPT-11; type: in vivo; settings: for tumor response: 2.5 mg CPT-11/kg/day, three cycles
Experimental: The tumor growth rate is depicted on the Y-axis of each graph in terms of tumor volume and is plotted as a function of time in weeks (X-axis).
In this preclinical model, expression of the transfected cDNA for rabbit CE was maintained for at least 12 weeks.
Experiments were performed in this model to compare the responses of mice bearing human Rh30 and Rh30pIRESrabbit xenografts. Rh30 rhabdosarcoma xenografts were transfected with pIRESneo plasmid containing the cDNA for rabbit liver CE and selected with G418. Expression of CE was confirmed by biochemical assay using the CE substrate o-NPA and maintained for at least 12 weeks. Two groups of SCID mice were then injected with the transfected Rh30pIRESrabbit cells subcutaneously into the flanks. A third group of control mice was injected in identical fashion with Rh30 cells not transfected with the plasmid.

[6] = test system: Rh30 rhabdomyosarcoma cells; assay: Growth inhibition by CPT-11 of Rh30 cells stably transfected with pIRES or rabbit CE cDNA; type: cell-based; settings: Homo sapiens, Rh30, 2 h, 2 h exposure
Experimental: The in vitro activity of rabbit liver CE was examined in tumor cell lines. […] Optimized conditions for electroporation were achieved using 180 V and 960 uF. […] Cells were grown for a minimum of 10 days before use in growth inhibition experiments. […] Drug was added to tissue culture medium of each of the stably transfected cell lines for two hours, after which time the medium was replaced with drug-free medium. Cells were then allowed to grow for 3 cell doublings as before.

[7] = biological target: T1, rabbit liver CE; assay: Metabolism of CPT-11 by commercially available rabbit liver CE, rapid fluorometric assay; type: biochemical; settings: partially purified commercial rabbit liver CE
Source text: (§2) The commercially available pig CE contained several proteins. […] Therefore, the rabbit proteins were chosen for further study.

[8] = test system: human NB-1691 xenografts; assay: NB-1691 xenograft model for MRD; type: in vivo, mice; settings: 10 mg/kg CPT-11 daily for 5 days on two consecutive weeks
Source text: However, within 4–6 weeks, tumors are palpable in the exact position where the original xenograft was implanted. Since these tumors arise from cells that survived the initial cycle of chemotherapy, this model therefore mimics results seen in patients following surgical resection of the primary tumor and subsequent regrowth at the same site.

[9] = test system: Rh30 cells; assay: Growth inhibition of Rh30 cells by CPT-11 pre-incubated with rabbit liver CE; type: cell-based, human; settings: 1 to 5 units of CE inactivated by heating; 1 h exposure
Source text: Another aspect of the present invention relates to the ability of compositions of the present invention comprising a polynucleotide encoding a carboxylesterase and a disease-specific responsive promoter of selected tumor cells to sensitize the tumor cells to a chemotherapeutic prodrug. The ability of the combination of a rabbit CE of the present invention and CPT-11 to sensitize human tumor cells to CPT-11 was examined. Experiments were first performed to confirm that the metabolite produced by the activity of a CE of the present invention is biologically active in vitro. Rh30 cells were then exposed to the products of each reaction for one hour and the percentage of growth inhibition was determined.
Each reaction mixture was then filter-sterilized and Rh30 cells were exposed to drug for one hour, at which time the medium was replaced with drug-free medium containing serum. […] Cells were allowed to grow for 3 cell doubling times and cell numbers were determined.

[10] = test system: Rh18 RMS xenografts; settings: cited from earlier work
[11] = test system: CEs purified from human tissues; settings: human CE; cited from earlier work
[12] = test system: pig liver CE; assay: Metabolism of CPT-11 by commercially available pig liver CE, rapid fluorometric assay; type: biochemical; settings: partially purified commercial pig liver CE
Source text: as §2

[13] = biological target: T2, topoisomerase I (Homo sapiens, UniProt P11387); settings: cited from earlier work
T2 sequence (P11387 1-765): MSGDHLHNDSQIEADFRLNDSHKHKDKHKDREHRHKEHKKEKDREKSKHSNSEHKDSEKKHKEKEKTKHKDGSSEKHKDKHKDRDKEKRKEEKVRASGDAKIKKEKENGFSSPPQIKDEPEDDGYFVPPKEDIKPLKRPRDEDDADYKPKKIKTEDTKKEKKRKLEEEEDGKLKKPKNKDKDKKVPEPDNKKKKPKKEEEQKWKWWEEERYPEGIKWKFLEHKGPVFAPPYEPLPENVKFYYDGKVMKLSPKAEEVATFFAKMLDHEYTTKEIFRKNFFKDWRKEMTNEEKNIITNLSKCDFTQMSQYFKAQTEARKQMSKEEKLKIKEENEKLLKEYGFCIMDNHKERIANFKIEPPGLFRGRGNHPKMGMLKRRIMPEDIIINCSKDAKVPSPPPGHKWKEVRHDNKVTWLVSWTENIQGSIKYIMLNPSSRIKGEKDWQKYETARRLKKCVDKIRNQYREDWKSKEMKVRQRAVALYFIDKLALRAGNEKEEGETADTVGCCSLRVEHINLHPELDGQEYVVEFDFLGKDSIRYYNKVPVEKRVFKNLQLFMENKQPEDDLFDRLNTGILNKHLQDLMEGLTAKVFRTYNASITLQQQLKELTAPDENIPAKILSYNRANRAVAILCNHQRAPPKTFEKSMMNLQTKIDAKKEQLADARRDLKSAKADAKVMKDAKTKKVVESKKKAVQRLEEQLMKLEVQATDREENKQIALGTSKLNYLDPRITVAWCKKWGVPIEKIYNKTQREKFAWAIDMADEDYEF

[14] = tumors not expressing CE (Rh30)

CCc1c2c(nc3ccc(OC(=O)N4CCC(NCCCCC(=O)O)CC4)cc13)-c1cc3c(c(=O)n1C2)COC(=O)[C@]3(O)CC [APC]
sensitization to growth inhibitory effects of APC ([1]; U-373 cells expressing human alveolar macrophage CE): not | sensitization to growth inhibitory effects of APC ([1]; U-373 cells expressing rabbit liver CE): sensitized | conversion of APC to SN-38 [2]: converted to SN-38 in a concentration-dependent manner

CCc1c2c(nc3ccc(OC(=O)N4CCC(N5CCCCC5)CC4)cc13)-c1cc3c(c(=O)n1C2)COC(=O)[C@]3(O)CC [CPT-11, 7-ethyl-10-[4-(1-piperidino)-1-piperidino]carbonyloxycamptothecin]
dose-limiting toxicities [3]: myelosuppression and secretory diarrhea | tumor response ([4]; xenografts from cells transfected with control plasmid (no rabbit CE)): stable disease but no significant regression; also recorded: stable disease with no significant regression | tumor response ([4]; xenografts from cells transfected with plasmid encoding rabbit CE): tumor regression was seen only in treated cells expressing rabbit CE; also recorded: regressed completely | tumor response ([5]; tumors expressing rabbit CE (Rh30pIRESrabbit), 5 days/week for 2 weeks, 12 weeks): complete tumor regression; also recorded: regressed completely and did not regrow | time to regrowth after CPT-11 treatment stopped [5, 14]: within one week | tumor response [5, 14]: initial regression but regrowth; also recorded: regressed only transiently | IC50 ([6]; read-out: IC50 of CPT-11, Rh30pIRES cells (no CE cDNA)): 4330 nM | IC50 ([6]; read-out: IC50 of CPT-11, Rh30pIRESrabbit cells (rabbit CE cDNA)): 576 nM | metabolism of CPT-11 [7]: metabolized CPT-11 efficiently | time until tumors are palpable again at the original site [8]: 4–6 weeks | tumor response [8]: complete regression | inhibition of cell growth [9]: no inhibition of cell growth | tumor response ([10]; 10 mg/kg/day, same schedule): only partial tumor regression | tumor response ([10]; 20 mg of CPT-11/kg/day daily for 5 days for two weeks): complete regressions | prodrug converted to active drug SN-38 [11]: less than 5% | metabolism of CPT-11 [12]: metabolized CPT-11 efficiently

CCc1c2c(nc3ccc(O)cc13)-c1cc3c(c(=O)n1C2)COC(=O)[C@]3(O)CC [SN-38, 7-ethyl-10-hydroxy-camptothecin]
inhibition of topoisomerase I [13]: potent inhibitor
